In PubChem BioAssay AID248 (DTP/NCI, 2004):
Several values for one entry are separate records, joined by “and”; a condition that tells them apart may be missing. Equal values may be shown once. Inconclusive results and toxic doses are left out.

System: L1210 leukemia ip in BDF1 mice, survival T/C
Assay: NCI In Vivo Anticancer Drug Screen. Data for tumor model L1210 Leukemia (intraperitoneal) in B6D2F1 (BDF1) mice
Details: endpoint: mean survival time, higher = longer survival
Method in brief: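 Tumor was transplanted into mice, which were then dosed with test compound or vehicle alone. Survival was recorded for each group, and the treated figure was expressed relative to the control figure.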

[1] = dose: 100.0 mg/kg/injection, schedule: Q01DX009 (ip), vehicle: Klucel (hydroxypropylcellulose) (HPC)
[2] = dose: 200.0 mg/kg/injection, schedule: Q01DX009 (ip), vehicle: Klucel (hydroxypropylcellulose) (HPC)
[3] = dose: 100.0 mg/kg/injection, schedule: Q01DX001 (ip), vehicle: carboxymethylcellulose (CMC)
[4] = dose: 200.0 mg/kg/injection, schedule: Q01DX001 (ip), vehicle: carboxymethylcellulose (CMC)
[5] = dose: 400.0 mg/kg/injection, schedule: Q01DX001 (ip), vehicle: carboxymethylcellulose (CMC)
[6] = dose: 25.0 mg/kg/injection, schedule: Q04DX003 (ip), vehicle: Klucel (hydroxypropylcellulose) (HPC)
[7] = dose: 50.0 mg/kg/injection, schedule: Q01DX009 (ip), vehicle: Klucel (hydroxypropylcellulose) (HPC)
[8] = dose: 100.0 mg/kg/injection, schedule: Q01DX009 (ip), vehicle: saline with Tween-80
[9] = dose: 200.0 mg/kg/injection, schedule: Q01DX009 (ip), vehicle: saline with Tween-80
[10] = dose: 400.0 mg/kg/injection, schedule: Q01DX009 (ip), vehicle: saline with Tween-80
[11] = dose: 50.0 mg/kg/injection, schedule: Q01DX009 (ip), vehicle: saline with Tween-80
[12] = dose: 100.0 mg/kg/injection, schedule: Q04DX003 (ip), vehicle: saline with Tween-80
[13] = dose: 200.0 mg/kg/injection, schedule: Q04DX003 (ip), vehicle: saline with Tween-80
[14] = dose: 400.0 mg/kg/injection, schedule: Q04DX003 (ip), vehicle: saline with Tween-80
[15] = dose: 100.0 mg/kg/injection, schedule: Q04DX002 (ip), vehicle: Klucel (hydroxypropylcellulose) (HPC)
[16] = dose: 200.0 mg/kg/injection, schedule: Q04DX002 (ip), vehicle: Klucel (hydroxypropylcellulose) (HPC)
[17] = dose: 400.0 mg/kg/injection, schedule: Q04DX002 (ip), vehicle: Klucel (hydroxypropylcellulose) (HPC)
[18] = dose: 100.0 mg/kg/injection, schedule: Q01DX001 (ip), vehicle: saline
[19] = dose: 200.0 mg/kg/injection, schedule: Q01DX001 (ip), vehicle: saline
[20] = dose: 400.0 mg/kg/injection, schedule: Q01DX001 (ip), vehicle: saline
[21] = dose: 100.0 mg/kg/injection, schedule: Q01DX001 (ip), vehicle: Klucel (hydroxypropylcellulose) (HPC)
[22] = dose: 200.0 mg/kg/injection, schedule: Q01DX001 (ip), vehicle: Klucel (hydroxypropylcellulose) (HPC)
[23] = dose: 50.0 mg/kg/injection, schedule: Q04DX003 (ip), vehicle: Klucel (hydroxypropylcellulose) (HPC)
[24] = dose: 100.0 mg/kg/injection, schedule: Q04DX003 (ip), vehicle: Klucel (hydroxypropylcellulose) (HPC)
[25] = dose: 200.0 mg/kg/injection, schedule: Q04DX003 (ip), vehicle: Klucel (hydroxypropylcellulose) (HPC)

## Cc1cccc(C)c1OC(=O)NCCCCCCNC(=O)Oc1c(C)cccc1C
[1]
  T/C: 102 % of control
[2]
  T/C: 92 % of control
dose: 400.0 mg/kg/injection, schedule: Q01DX009 (ip), vehicle: Klucel (hydroxypropylcellulose) (HPC)
  T/C: 92 % of control

## COc1ccccc1/C=N\NC(=O)c1ccco1
[3]
  T/C: 95 % of control
[4]
  T/C: 93 % of control
[5]
  T/C: 95 % of control

## CCN(CC)c1ccc(NC(C)=O)cc1
dose: 12.5 mg/kg/injection, schedule: Q01DX009 (ip), vehicle: Klucel (hydroxypropylcellulose) (HPC)
  T/C: 106 % of control
dose: 12.5 mg/kg/injection, schedule: Q04DX003 (ip), vehicle: Klucel (hydroxypropylcellulose) (HPC)
  T/C: 92 % of control
dose: 25.0 mg/kg/injection, schedule: Q01DX009 (ip), vehicle: Klucel (hydroxypropylcellulose) (HPC)
  T/C: 97 % of control
[6]
  T/C: 91 % of control
[7]
  T/C: 95 % of control

## CC(C)(C)C1COP(=O)(Oc2ccccc2)OC1 (centres undefined)
[3]
  T/C: 91 % of control
[4]
  T/C: 94 % of control

## O=C(N/N=C\c1ccc([N+](=O)[O-])cc1)c1ccccc1
[8]
  T/C: 97 % of control
[9]
  T/C: 94 % of control
[10]
  T/C: 93 % of control

## COc1cc(/C=C/C(C)=O)ccc1O
[11]
  T/C: 101 % of control
[8]
  T/C: 101 % of control
[12]
  T/C: 93 % of control
[9]
  T/C: 98 % of control
[13]
  T/C: 98 % of control
[14]
  T/C: 98 % of control

## CCCCCCOP(=O)(N1CC1C)N1CC1C (centres undefined)
dose: 12.0 mg/kg/injection, schedule: Q01DX Z (ip), vehicle: saline
  T/C: 102 % of control
dose: 25.0 mg/kg/injection, schedule: Q01DX Z (ip), vehicle: saline
  T/C: 103 % of control
dose: 50.0 mg/kg/injection, schedule: Q01DX Z (ip), vehicle: saline
  T/C: 102 % of control and 111 % of control
dose: 100.0 mg/kg/injection, schedule: Q01DX Z (ip), vehicle: saline
  T/C: 109 % of control
dose: 200.0 mg/kg/injection, schedule: Q01DX Z (ip), vehicle: saline
  T/C: 107 % of control
dose: 400.0 mg/kg/injection, schedule: Q01DX Z (ip), vehicle: saline
  T/C: 106 % of control

## CN(c1ccccc1)S(=O)(=O)c1ccccc1
[8]
  T/C: 100 % of control
[12]
  T/C: 97 % of control
[9]
  T/C: 106 % of control
[13]
  T/C: 97 % of control
[10]
  T/C: 90 % of control
[14]
  T/C: 92 % of control

## COc1ccc(C2Nc3cc(Cl)ccc3NC3=C2C(=O)CC(C)(C)C3)cc1 (centres undefined)
[15]
  T/C: 105 % of control
[16]
  T/C: 94 % of control
[17]
  T/C: 102 % of control

## CCC1(Cc2ccsc2)C(=O)NC(=O)NC1=O
[3]
  T/C: 103 % of control
[4]
  T/C: 94 % of control
[5]
  T/C: 100 % of control

## Nc1nc(N)c2cc(CNc3ccc(C(=O)NC(CC(=O)O)C(=O)O)c(Cl)c3)ccc2n1 (centres undefined)
dose: 1.8 mg/kg/injection, schedule: Q01DX009 (ip), vehicle: saline with Tween-80
  T/C: 152 % of control
dose: 1.8 mg/kg/injection, schedule: Q01DX009 (ip), vehicle: saline
  T/C: 157 % of control
dose: 2.7 mg/kg/injection, schedule: Q01DX009 (ip), vehicle: saline with Tween-80
  T/C: 178 % of control
dose: 2.7 mg/kg/injection, schedule: Q01DX009 (ip), vehicle: saline
  T/C: 162 % of control and 180 % of control
dose: 9.0 mg/kg/injection, schedule: Q01DX009 (ip), vehicle: saline
  T/C: 92 % of control
dose: 30.0 micrograms/kg/injection, schedule: Q01DX009 (ip), vehicle: saline with Tween-80
  T/C: 95 % of control
dose: 44.0 micrograms/kg/injection, schedule: Q01DX009 (ip), vehicle: saline with Tween-80
  T/C: 107 % of control
dose: 67.0 micrograms/kg/injection, schedule: Q01DX009 (ip), vehicle: saline with Tween-80
  T/C: 95 % of control
dose: 100.0 micrograms/kg/injection, schedule: Q01DX009 (ip), vehicle: saline with Tween-80
  T/C: 95 % of control

## Cc1nc(N)[nH]c(=O)c1CCCNCc1ccco1
[18]
  T/C: 100 % of control
[19]
  T/C: 103 % of control
[20]
  T/C: 99 % of control

## CCC/C=C(C)/C=N\NC(=O)c1ccc[n+](C)c1
[11]
  T/C: 93 % of control
[8]
  T/C: 97 % of control

## NC(=O)C(Cc1ccc(O)cc1)N(CCO)CCO (centres undefined)
[18]
  T/C: 101 % of control
[19]
  T/C: 101 % of control
[20]
  T/C: 104 % of control

## O=C(COc1ccc(Cl)c(Cl)c1)Nc1ccc[n+](Cc2cccc(S(=O)(=O)F)c2)c1
[21]
  T/C: 96 % of control
[22]
  T/C: 97 % of control

## C[N+]1(C)C2CCC(OCc3ccccc3)C1COC2 (centres undefined)
dose: 75.0 mg/kg/injection, schedule: Q01DX001 (ip), vehicle: saline
  T/C: 98 % of control
dose: 150.0 mg/kg/injection, schedule: Q01DX001 (ip), vehicle: saline
  T/C: 105 % of control

## Clc1nc2ncn3ncnc3c2[nH]1
dose: 100.0 mg/kg/injection, schedule: Q01DX001 (ip), vehicle: saline with Tween-80
  T/C: 104 % of control
dose: 200.0 mg/kg/injection, schedule: Q01DX001 (ip), vehicle: saline with Tween-80
  T/C: 101 % of control
dose: 400.0 mg/kg/injection, schedule: Q01DX001 (ip), vehicle: saline with Tween-80
  T/C: 92 % of control

## c1ccc(-c2ccc([Si](c3ccccc3)(c3ccc(-c4ccccc4)cc3)c3ccc(-c4ccccc4)cc3)cc2)cc1
[7]
  T/C: 91 % of control
[23]
  T/C: 93 % of control
[1]
  T/C: 93 % of control
[24]
  T/C: 89 % of control
[2]
  T/C: 93 % of control
[25]
  T/C: 88 % of control

## O=C(C1CC1)C1OC1c1ccccc1 (centres undefined)
[21]
  T/C: 96 % of control
[22]
  T/C: 100 % of control
dose: 400.0 mg/kg/injection, schedule: Q01DX001 (ip), vehicle: Klucel (hydroxypropylcellulose) (HPC)
  T/C: 94 % of control

## CCCC(=O)N1CCCCC1C (centres undefined)
[15]
  T/C: 112 % of control
[16]
  T/C: 89 % of control

## OC1CSC1.[Cl][Hg][Cl]
dose: 5.0 mg/kg/injection, schedule: Q01DX001 (ip), vehicle: carboxymethylcellulose (CMC)
  T/C: 94 % of control
dose: 10.0 mg/kg/injection, schedule: Q01DX001 (ip), vehicle: carboxymethylcellulose (CMC)
  T/C: 100 % of control
dose: 20.0 mg/kg/injection, schedule: Q01DX001 (ip), vehicle: carboxymethylcellulose (CMC)
  T/C: 91 % of control

## O=C1CCS(=O)O1 (centres undefined)
[15]
  T/C: 100 % of control
[16]
  T/C: 95 % of control
[17]
  T/C: 89 % of control

## CN(CCO)Cc1ccc(Cl)cc1
dose: 150.0 mg/kg/injection, schedule: Q01DX015 (ip), vehicle: saline
  T/C: 91 % of control

## COc1cc2cccccc-2cc1=O
dose: 50.0 mg/kg/injection, schedule: Q01DX009 (ip), vehicle: other
  T/C: 104 % of control
dose: 100.0 mg/kg/injection, schedule: Q01DX009 (ip), vehicle: other
  T/C: 89 % of control
[24]
  T/C: 103 % of control
dose: 200.0 mg/kg/injection, schedule: Q01DX009 (ip), vehicle: other
  T/C: 101 % of control
[25]
  T/C: 97 % of control
dose: 400.0 mg/kg/injection, schedule: Q04DX003 (ip), vehicle: Klucel (hydroxypropylcellulose) (HPC)
  T/C: 103 % of control

## CN1C(=O)C2(c3ccccc31)C1CC3C(CO1)C1C2C3(CO)C[N+]1(C)C (centres undefined)
[18]
  T/C: 97 % of control
[19]
  T/C: 102 % of control

## COC(=O)c1cncn1C(C)c1cccc2ccccc12 (centres undefined)
[6]
  T/C: 96 % of control
[23]
  T/C: 102 % of control
[24]
  T/C: 101 % of control and 103 % of control

## O=C(O)c1ccc(CCCCBr)cc1
[15]
  T/C: 96 % of control
[16]
  T/C: 100 % of control
[17]
  T/C: 96 % of control

## NC1C2CC3CC1CC(C2)O3 (centres undefined)
dose: 25.0 mg/kg/injection, schedule: Q04DX002 (ip), vehicle: saline
  T/C: 103 % of control
dose: 50.0 mg/kg/injection, schedule: Q04DX002 (ip), vehicle: saline
  T/C: 106 % of control
dose: 100.0 mg/kg/injection, schedule: Q04DX002 (ip), vehicle: saline
  T/C: 106 % of control
